{"source": "patent US12403118B1", "about": "“Cancer treatments using modified fatty acids and the carriers to administer them” (Zetagen Therapeutics, Inc., priority 2025, dated 2025)", "key": {"MCF7 breast cancer cells": {"system": "MCF7 breast cancer cells", "test": "MTT assay of cell proliferation", "type": "cell-based", "details": "relative to no treatment", "procedure": "The MTT Assay of Cell Proliferation: The MTT assay provides a measurement of cell proliferation (FIG. 5) in the MCF7 breast cancer cells. […] Experiments were conducted using three independent replicates and evaluated using a 1-way ANOVA. Relative to Controls at 24-hours (FIG. 5A), there was between a 6.9% and 11.94% decrease in cell number (**=p<0.0034, ***=p<0.0007, and ****=p<0.0001). Relative to Control cultures at 72-hours (FIG. 5B), there was between a 15.4% and 50.2% decrease in cell number (****=p<0.0001).\nCombination Therapy Assessed Using the MTT Assay of Cell Proliferation: The MTT assay provides a measurement of cell proliferation (FIG. 5) in the MCF7 breast cancer cells. […] Control cultures were treated with 50-nM of Tomoxifen or 10-nM of Abemaciclib."}, "Phosphoglycerate kinase": {"system": "Phosphoglycerate kinase", "details": "substrate Mg-ATP; cited from earlier work"}, "[1]": {"test": "Solubility in heated non-polar solvents and fatty acid solutions", "type": "physicochemical", "details": "heated to at least 90° C.; for solubility in fatty acid solutions: oleic acid, linoleic acid, vegetable oil, olive oil, canola oil, castor oil; for solubility in non-polar solvents: toluene, xylene, n-octane, cyclohexane, hexane, chloroform, acetonitrile, ether"}, "TRPA1 channels": {"biological_target": "TRPA1 channels (Homo sapiens, UniProt O75762)", "sequence (O75762 whole entry)": "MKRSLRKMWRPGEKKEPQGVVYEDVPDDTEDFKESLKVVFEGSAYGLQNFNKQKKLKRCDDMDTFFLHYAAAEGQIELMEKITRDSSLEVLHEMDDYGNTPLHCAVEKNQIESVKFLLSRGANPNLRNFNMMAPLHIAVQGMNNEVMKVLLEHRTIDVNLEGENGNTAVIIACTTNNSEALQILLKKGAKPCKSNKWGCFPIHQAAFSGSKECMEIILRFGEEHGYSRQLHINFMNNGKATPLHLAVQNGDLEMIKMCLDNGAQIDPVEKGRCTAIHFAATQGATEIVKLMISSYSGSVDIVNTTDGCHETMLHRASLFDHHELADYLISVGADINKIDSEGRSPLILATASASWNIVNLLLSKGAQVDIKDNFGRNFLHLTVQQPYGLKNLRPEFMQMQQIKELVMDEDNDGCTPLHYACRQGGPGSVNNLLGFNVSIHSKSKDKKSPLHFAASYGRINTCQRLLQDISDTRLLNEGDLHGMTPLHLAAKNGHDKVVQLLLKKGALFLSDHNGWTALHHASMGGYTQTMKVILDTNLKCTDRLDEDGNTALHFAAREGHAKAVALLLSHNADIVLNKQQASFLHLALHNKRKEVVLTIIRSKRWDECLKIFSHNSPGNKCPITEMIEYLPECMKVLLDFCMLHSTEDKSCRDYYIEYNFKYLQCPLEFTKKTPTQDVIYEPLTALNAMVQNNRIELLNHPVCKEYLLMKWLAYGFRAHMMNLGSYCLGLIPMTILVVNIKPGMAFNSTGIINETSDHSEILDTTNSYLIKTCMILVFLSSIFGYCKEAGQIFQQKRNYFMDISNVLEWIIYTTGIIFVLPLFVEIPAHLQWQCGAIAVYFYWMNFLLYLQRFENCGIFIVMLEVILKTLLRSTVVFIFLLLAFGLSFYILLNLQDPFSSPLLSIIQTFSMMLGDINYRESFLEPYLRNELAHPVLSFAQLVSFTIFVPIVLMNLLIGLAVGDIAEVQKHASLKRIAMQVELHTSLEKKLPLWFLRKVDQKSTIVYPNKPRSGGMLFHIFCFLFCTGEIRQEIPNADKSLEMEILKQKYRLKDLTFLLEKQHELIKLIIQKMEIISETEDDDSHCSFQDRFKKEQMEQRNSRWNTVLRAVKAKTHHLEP", "details": "20-μM Ca^2+; cited from earlier work"}}}
{"molecule": "CCN1CCN(Cc2ccc(Nc3ncc(F)c(-c4cc(F)c5nc(C)n(C(C)C)c5c4)n3)nc2)CC1", "note": "[Abemaciclib]", "values": [{"measurement": "decrease in cell number", "setting": "MCF7 breast cancer cells; MCF7, 24-hours, 10-nM Abemaciclib", "result": 10.2, "unit": "%"}, {"measurement": "decrease in cell number", "setting": "MCF7 breast cancer cells; MCF7, 72-hours, 10-nM Abemaciclib", "result": 26.4, "unit": "%"}]}
{"molecule": "Nc1ncnc2c1ncn2[C@@H]1O[C@H](COP(=O)(O)OP(=O)([O-])OP(=O)([O-])O)[C@@H](O)[C@H]1O.[Mg+2]", "note": "[Mg-ATP]", "values": [{"measurement": "K-value", "setting": "Phosphoglycerate kinase", "result": 0.073, "unit": "mM"}]}
{"molecule": "CC/C(=C(\\c1ccccc1)c1ccc(OCCN(C)C)cc1)c1ccccc1", "note": "[Tamoxifen]", "values": [{"measurement": "decrease in cell number", "setting": "MCF7 breast cancer cells; MCF7, 24-hours, 50-nM Tamoxifen", "result": 54, "unit": "%"}, {"measurement": "decrease in cell number", "setting": "MCF7 breast cancer cells; MCF7, 72-hours, 50-nM Tamoxifen", "result": 80.3, "unit": "%"}]}
{"molecule": "CCCCCCCCC(OC(C)=O)C(CCCCCCCC(=O)O)OC(C)=O", "note": "(stereo not shown) [lanthanum (III) tri 9,10-diacetoxy octadecanoate]", "values": [{"measurement": "solubility in fatty acid solutions", "setting": "[1]", "result": "soluble"}, {"measurement": "solubility in non-polar solvents", "setting": "[1]", "result": "soluble"}]}
{"molecule": "CCCCCCCCCCCC(=O)O", "note": "[lanthanum (III) tridodeconoate]", "values": [{"measurement": "solubility in fatty acid solutions", "setting": "[1]", "result": "soluble"}, {"measurement": "solubility in non-polar solvents", "setting": "[1]", "result": "soluble"}]}
{"molecule": "[La]", "note": "[lanthanum]", "values": [{"measurement": "IC50", "setting": "TRPA1 channels", "result": 54, "unit": "µM"}]}
